From PubChem BioAssay (NCI)
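Cultured in 96-well plates, cells were exposed to test compound for 48 hours across five concentrations. TGI: concentration producing complete growth inhibition.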

Assays:
Assay in all cases: NCI anticancer screen, dose series, 48 h
SNB-19 CNS = system: SNB-19 CNS
M19-MEL melanoma = system: M19-MEL melanoma
DMS 114 small cell lung = system: DMS 114 small cell lung
TK-10 renal = system: TK-10 renal
HL-60(TB) leukemia = system: HL-60(TB) leukemia
HCT-116 colon = system: HCT-116 colon
SN12C renal = system: SN12C renal
HT29 colon = system: HT29 colon
A549 NSCLC = system: A549 NSCLC
EKVX NSCLC = system: EKVX NSCLC
HOP-18 NSCLC = system: HOP-18 NSCLC
NCI-H23 lung = system: NCI-H23 lung
HOP-62 NSCLC = system: HOP-62 NSCLC
M14 melanoma = system: M14 melanoma
SF-268 CNS = system: SF-268 CNS
IGROV1 ovarian = system: IGROV1 ovarian
SNB-75 CNS = system: SNB-75 CNS
LXFL 529 NSCLC = system: LXFL 529 NSCLC
UACC-62 melanoma = system: UACC-62 melanoma
OVCAR-4 ovarian = system: OVCAR-4 ovarian
NCI-H226 lung = system: NCI-H226 lung
NCI-H460 lung = system: NCI-H460 lung
K-562 leukemia = system: K-562 leukemia
SK-MEL-28 melanoma = system: SK-MEL-28 melanoma
HCC-2998 colon = system: HCC-2998 colon
SW-620 colon = system: SW-620 colon
SNB-78 CNS = system: SNB-78 CNS
SK-MEL-5 melanoma = system: SK-MEL-5 melanoma
OVCAR-3 ovarian = system: OVCAR-3 ovarian
MOLT-4 leukemia = system: MOLT-4 leukemia
SK-OV-3 ovarian = system: SK-OV-3 ovarian
COLO 205 colon = system: COLO 205 colon
DLD-1 colon = system: DLD-1 colon
SF-539 CNS = system: SF-539 CNS
U251 CNS = system: U251 CNS
XF 498 CNS = system: XF 498 CNS
LOX IMVI melanoma = system: LOX IMVI melanoma
KM20L2 colon = system: KM20L2 colon
NCI-H522 lung = system: NCI-H522 lung
SF-295 CNS = system: SF-295 CNS
KM12 colon = system: KM12 colon
RXF 393 renal = system: RXF 393 renal
CCRF-CEM leukemia = system: CCRF-CEM leukemia
RPMI-8226 leukemia = system: RPMI-8226 leukemia
DMS 273 small cell lung = system: DMS 273 small cell lung
OVCAR-8 ovarian = system: OVCAR-8 ovarian
786-0 renal = system: 786-0 renal
ACHN renal = system: ACHN renal
HCT-15 colon = system: HCT-15 colon
A498 renal = system: A498 renal
UACC-257 melanoma = system: UACC-257 melanoma
UO-31 renal = system: UO-31 renal
SR leukemia = system: SR leukemia
MALME-3M melanoma = system: MALME-3M melanoma
HOP-92 NSCLC = system: HOP-92 NSCLC
SK-MEL-2 melanoma = system: SK-MEL-2 melanoma
OVCAR-5 ovarian = system: OVCAR-5 ovarian
CAKI-1 renal = system: CAKI-1 renal

Structure (SMILES): O=[P+](O)c1cc2c3ccccc3ccc2c2ccccc12
- TGI (SNB-19 CNS): > 100 µM
- TGI (M19-MEL melanoma): > 100 µM
- TGI (DMS 114 small cell lung): > 100 µM
- TGI (TK-10 renal): > 100 µM
- TGI (HL-60(TB) leukemia): > 100 µM
- TGI (HCT-116 colon): > 100 µM
- TGI (SN12C renal): > 100 µM
- TGI (HT29 colon): > 100 µM
- TGI (A549 NSCLC): > 100 µM
- TGI (EKVX NSCLC): > 100 µM
- TGI (HOP-18 NSCLC): > 100 µM
- TGI (NCI-H23 lung): > 100 µM
- TGI (HOP-62 NSCLC): > 100 µM
- TGI (M14 melanoma): > 100 µM
- TGI (SF-268 CNS): > 100 µM
- TGI (IGROV1 ovarian): > 100 µM
- TGI (SNB-75 CNS): > 100 µM
- TGI (LXFL 529 NSCLC): > 100 µM
- TGI (UACC-62 melanoma): > 100 µM
- TGI (OVCAR-4 ovarian): > 100 µM
- TGI (NCI-H226 lung): 94.2 µM
- TGI (NCI-H460 lung): > 100 µM
- TGI (K-562 leukemia): > 100 µM
- TGI (SK-MEL-28 melanoma): > 100 µM
- TGI (HCC-2998 colon): > 100 µM
- TGI (SW-620 colon): > 100 µM
- TGI (SNB-78 CNS): > 100 µM
- TGI (SK-MEL-5 melanoma): > 100 µM
- TGI (OVCAR-3 ovarian): > 100 µM
- TGI (MOLT-4 leukemia): > 100 µM
- TGI (SK-OV-3 ovarian): > 100 µM
- TGI (COLO 205 colon): > 100 µM
- TGI (DLD-1 colon): > 100 µM
- TGI (SF-539 CNS): > 100 µM
- TGI (U251 CNS): > 100 µM
- TGI (XF 498 CNS): > 100 µM
- TGI (LOX IMVI melanoma): > 100 µM
- TGI (KM20L2 colon): > 100 µM
- TGI (NCI-H522 lung): > 100 µM
- TGI (SF-295 CNS): > 100 µM
- TGI (KM12 colon): > 100 µM
- TGI (RXF 393 renal): > 100 µM
- TGI (CCRF-CEM leukemia): > 100 µM
- TGI (RPMI-8226 leukemia): > 100 µM
- TGI (DMS 273 small cell lung): > 100 µM
- TGI (OVCAR-8 ovarian): > 100 µM
- TGI (786-0 renal): > 100 µM

Structure (SMILES): CN(C)/C=C/C(=O)c1cccc(C(=O)/C=C/N(C)C)n1
- TGI (ACHN renal): > 100 µM
- TGI (SNB-19 CNS): > 100 µM
- TGI (M19-MEL melanoma): > 100 µM
- TGI (TK-10 renal): > 100 µM
- TGI (HL-60(TB) leukemia): > 100 µM
- TGI (HCT-116 colon): > 100 µM
- TGI (SN12C renal): > 100 µM
- TGI (HT29 colon): > 100 µM
- TGI (A549 NSCLC): > 100 µM
- TGI (EKVX NSCLC): > 100 µM
- TGI (HOP-18 NSCLC): > 100 µM
- TGI (NCI-H23 lung): > 100 µM
- TGI (HOP-62 NSCLC): > 100 µM
- TGI (M14 melanoma): > 100 µM
- TGI (SF-268 CNS): > 100 µM
- TGI (IGROV1 ovarian): > 100 µM
- TGI (SNB-75 CNS): > 100 µM
- TGI (LXFL 529 NSCLC): > 100 µM
- TGI (UACC-62 melanoma): > 100 µM
- TGI (OVCAR-4 ovarian): > 100 µM
- TGI (HCT-15 colon): > 100 µM
- TGI (A498 renal): > 100 µM
- TGI (NCI-H226 lung): > 100 µM
- TGI (NCI-H460 lung): > 100 µM
- TGI (K-562 leukemia): > 100 µM
- TGI (SK-MEL-28 melanoma): > 100 µM
- TGI (UACC-257 melanoma): > 100 µM
- TGI (HCC-2998 colon): > 100 µM
- TGI (UO-31 renal): > 100 µM
- TGI (SR leukemia): > 100 µM
- TGI (MALME-3M melanoma): > 100 µM
- TGI (SW-620 colon): > 100 µM
- TGI (SNB-78 CNS): > 100 µM
- TGI (SK-MEL-5 melanoma): > 100 µM
- TGI (OVCAR-3 ovarian): > 100 µM
- TGI (MOLT-4 leukemia): > 100 µM
- TGI (SK-OV-3 ovarian): > 100 µM
- TGI (COLO 205 colon): > 100 µM
- TGI (DLD-1 colon): > 100 µM
- TGI (SF-539 CNS): > 100 µM
- TGI (U251 CNS): > 100 µM
- TGI (XF 498 CNS): > 100 µM
- TGI (HOP-92 NSCLC): > 100 µM
- TGI (LOX IMVI melanoma): > 100 µM
- TGI (KM20L2 colon): > 100 µM
- TGI (SK-MEL-2 melanoma): > 100 µM
- TGI (NCI-H522 lung): > 100 µM
- TGI (SF-295 CNS): > 100 µM
- TGI (KM12 colon): > 100 µM
- TGI (RXF 393 renal): > 100 µM
- TGI (CCRF-CEM leukemia): > 100 µM
- TGI (RPMI-8226 leukemia): > 100 µM
- TGI (DMS 273 small cell lung): > 100 µM
- TGI (OVCAR-8 ovarian): > 100 µM
- TGI (786-0 renal): > 100 µM
- TGI (OVCAR-5 ovarian): > 100 µM

Structure (SMILES): CCCN(CCC)c1c([N+](=O)[O-])cc(C(N)=O)cc1[N+](=O)[O-]
- TGI (ACHN renal): > 100 µM
- TGI (M19-MEL melanoma): > 100 µM
- TGI (DMS 114 small cell lung): > 100 µM
- TGI (TK-10 renal): > 100 µM
- TGI (HL-60(TB) leukemia): 87.4 µM
- TGI (HCT-116 colon): > 100 µM
- TGI (SN12C renal): > 100 µM
- TGI (HT29 colon): > 100 µM
- TGI (A549 NSCLC): > 100 µM
- TGI (EKVX NSCLC): > 100 µM
- TGI (CAKI-1 renal): > 100 µM
- TGI (NCI-H23 lung): > 100 µM
- TGI (M14 melanoma): > 100 µM
- TGI (SF-268 CNS): > 100 µM
- TGI (IGROV1 ovarian): > 100 µM
- TGI (SNB-75 CNS): > 100 µM
- TGI (LXFL 529 NSCLC): > 100 µM
- TGI (OVCAR-4 ovarian): > 100 µM
- TGI (HCT-15 colon): > 100 µM
- TGI (NCI-H226 lung): > 100 µM
- TGI (NCI-H460 lung): > 100 µM
- TGI (K-562 leukemia): > 100 µM
- TGI (SK-MEL-28 melanoma): > 100 µM
- TGI (UACC-257 melanoma): > 100 µM
- TGI (HCC-2998 colon): > 100 µM
- TGI (UO-31 renal): > 100 µM
- TGI (MALME-3M melanoma): > 100 µM
- TGI (SK-MEL-5 melanoma): 53.8 µM
- TGI (OVCAR-3 ovarian): > 100 µM
- TGI (MOLT-4 leukemia): > 100 µM
- TGI (SK-OV-3 ovarian): > 100 µM
- TGI (COLO 205 colon): > 100 µM
- TGI (DLD-1 colon): > 100 µM
- TGI (SF-539 CNS): > 100 µM
- TGI (U251 CNS): > 100 µM
- TGI (XF 498 CNS): > 100 µM
- TGI (SK-MEL-2 melanoma): > 100 µM
- TGI (NCI-H522 lung): 67.3 µM
- TGI (SF-295 CNS): > 100 µM
- TGI (KM12 colon): > 100 µM
- TGI (CCRF-CEM leukemia): > 100 µM
- TGI (RPMI-8226 leukemia): > 100 µM
- TGI (DMS 273 small cell lung): > 100 µM
- TGI (OVCAR-8 ovarian): > 100 µM
- TGI (786-0 renal): > 100 µM
- TGI (OVCAR-5 ovarian): > 100 µM
